The text below walks through data of US12648946B2, “Combination of antibody-pyrrolobenzodiazepine derivative conjugate and PARP inhibitor” (DAIICHI SANKYO COMPANY, LIMITED, priority 2019, dated 2026).

pIC50: −log10 of the molar value. Like-named read-outs stand apart in the source and are kept apart here.

Series [1] concerns human ovarian cancer cell line OV-90. Put plainly: Antitumor test (4), subcutaneous xenograft. In kind it is in vivo, mouse. The settings on record: single administration.
Procedure: Mouse: Five- to six-week-old female BALB/c nude mice (Charles River Laboratories Japan, Inc.) were subjected to experiment.
Assay and calculation formula: In all of the studies, the major axis and minor axis of a tumor were measured twice a week by using an electronic digital caliper (CD-15CX, Mitutoyo Corp.), and the tumor volume (mm^3) was calculated. The calculation formula is as shown below.
Each of the anti-CLDN6 antibody-drug conjugate ADC1, the anti-HER2 antibody-drug conjugate ADC2, and the anti-TROP2 antibody-drug conjugate ADC3 was diluted with ABS buffer (10 mM acetate buffer (pH 5.5), 5% sorbitol), and a liquid volume of 10 mL/kg was intravenously administered into the tail vein. Olaparib was dissolved in Dimethyl sulfoxide (DMSO), diluted with 10% 2-hydroxy-propyl-β-cyclodextrin (Sigma-Aldrich Co. LLC)/Dulbecco's Phosphate-Buffered Saline, and then a liquid volume of 10 mL/kg was intraperitoneally administered. Talazoparib was dissolved in DMSO, diluted with 10% N,N-dimethylacetamide/5% Kolliphor HS15 (Sigma-Aldrich Co. LLC)/Dulbecco's Phosphate-Buffered Saline, and then a liquid volume of 10 mL/kg was orally administered. […]
Series [2] deals with human lung cancer cell line Calu-6. Put plainly: Cell growth inhibition test (1). In kind it is cell-based. The note with it: Calu-6, 144 h. How it is done: The human lung cancer cell line Calu-6 obtained from ATCC (American Type Culture Collection) was used for evaluation. Cells were prepared with MEM containing 10% fetal bovine serum (GE Healthcare), MEM Non-Essential Amino Acids Solution (Thermo Fisher Scientific), and Sodium Pyruvate (Thermo Fisher Scientific) (Thermo Fisher Scientific; hereinafter, referred to as EMEM medium) to reach 1.25×10^4 cells/mL, and 80 μL portions of them were added into a 96-well cell culture microplate. After addition of the cells, the cells were cultured at 37° C. and 5% CO2 overnight.
(§1) On the next day, 10 μL portions of pyrrolobenzodiazepine derivative A, B, or C diluted with EMEM medium to 100 pM, 50 pM, 25 pM, 12.5 pM, 6.25 pM, 3.13 pM, 1.56 pM, or 0.78 pM were added to the microplate. To each well without any pyrrolobenzodiazepine derivative, 10 μL of EMEM medium was added. Further, 10 μL portions of olaparib prepared with EMEM medium to reach 2 μM were added to the microplate. To each well without olaparib, 10 μL of EMEM medium was added. Thereafter, the microplate was cultured at 37° C. and 5% CO2 for 6 days. After culturing, the microplate was taken out of the incubator, and left to stand at room temperature for 30 minutes. CellTiter-Glo Luminescent Cell Viability Assay (Promega Corporation) in an amount equivalent to that of the culture solution was added, and stirred using a plate mixer. The microplate was left to stand at room temperature for 10 minutes, and thereafter the amount of emission was measured by using a plate reader (PerkinElmer).
(§2) Cell survival rates in wells with derivative A, B, or C were calculated by using the following formula.
(§3) [formula] • a: Mean value of amounts of emission from wells with derivative A, B, or C • b: Mean value of amounts of emission from wells with medium • IC50 values were calculated by using the following formula.
(§4) [formula] • a: Concentration of derivative A, B, or C, a • b: Concentration of derivative A, B, or C, b • c: Cell survival rate when derivative A, B, or C of concentration a was added • d: Cell survival rate when derivative A, B, or C of concentration b was added • a and b satisfy a>b at points sandwiching a cell survival rate of 50%.
Cell survival rates in wells with derivative A, B, or C added together with 2 μM olaparib were calculated by using the following formula.
[formula] a: Mean value of amounts of emission from wells with derivative A, B, or C added together with 2 μM olaparib • b: Mean value of amounts of emission from wells with 2 μM olaparib • IC50 values were calculated by using the following formula.
[formula] • a: Concentration of derivative A, B, or C, a • b: Concentration of derivative A, B, or C, b • c: Cell survival rate when derivative A, B, or C of concentration a and 2 μM olaparib were added • d: Cell survival rate when derivative A, B, or C of concentration b and 2 μM olaparib were added • a and b satisfy a>b at points sandwiching a cell survival rate of 50%.

In series [3] the test system is human pharyngeal cancer cell line FaDu. Nature of the series: Cell growth inhibition test (2). The note with it: 144 h. In kind it is cell-based. As to the method: (§5) The human pharyngeal cancer cell line FaDu obtained from ATCC (American Type Culture Collection) was used for evaluation. Cells were prepared with MEM containing 10% fetal bovine serum (GE Healthcare), MEM Non-Essential Amino Acids Solution (Thermo Fisher Scientific), and Sodium Pyruvate (Thermo Fisher Scientific) (Thermo Fisher Scientific; hereinafter, referred to as EMEM medium) to reach 6.25×10^3 cells/mL, and 80 μL portions of them were added into a 96-well cell culture microplate. After addition of the cells, the cells were cultured at 37° C. and 5% CO2 overnight.
as §1, with “reach 1” for “reach 2”
Cell survival rates in wells with derivative A, B, or […] were calculated by using the following formula.
as §3, §4
Cell survival rates in wells with derivative A, B, or C added together with 1 μM olaparib were calculated by using the following formula.
[formula] • a: Mean value of amounts of emission from wells with derivative A, B, or C added together with 1 μM olaparib • b: Mean value of amounts of emission from wells with 1 μM olaparib • IC50 values were calculated by using the following formula.
[formula] • a: Concentration of derivative A, B, or C, a • b: Concentration of derivative A, B, or C, b • c: Cell survival rate when derivative A, B, or C of concentration a and 1 μM olaparib were added • d: Cell survival rate when derivative A, B, or C of concentration b and 1 μM olaparib were added • a and b satisfy a>b at points sandwiching a cell survival rate of 50%.

The test system is the same in series [4]. Put plainly: Cell growth inhibition test (3). The format is cell-based. The note with it: 144 h. How it is done: as §5
as §1, with “talazoparib” for “olaparib”, “nM” for “μM”, “talazoparib,” for “olaparib,”
as §2, §3, §4
Cell survival rates in wells with derivative A, B, or C added together with 2 nM talazoparib were calculated by using the following formula.
[formula] • a: Mean value of amounts of emission from wells with derivative A, B, or C added together with 2 nM talazoparib • b: Mean value of amounts of emission from wells with 2 nM talazoparib • IC50 values were calculated by using the following formula.
[formula] • a: Concentration of derivative A, B, or C, a • b: Concentration of derivative A, B, or C, b • c: Cell survival rate when derivative A, B, or C of concentration a and 2 nM talazoparib were added • d: Cell survival rate when derivative A, B, or C of concentration b and 2 nM talazoparib were added • a and b satisfy a>b at points sandwiching a cell survival rate of 50%.

Setting [5] is: read-out: IC50, growth-suppressing effect, added singly, Calu-6, 6 days.
Where [6] appears, read: read-out: IC50, growth-suppressing effect, added together with 2 μM olaparib, Calu-6, 6 days.
The mark [7] stands for this setting: read-out: IC50, growth-suppressing effect, added singly, FaDu, 6 days (test 2).
Where [8] appears, read: read-out: IC50, growth-suppressing effect, added together with 1 μM olaparib, FaDu, 6 days.
Where [9] appears, read: read-out: IC50, growth-suppressing effect, added singly, FaDu, 6 days (test 3).
[10] abbreviates: read-out: IC50, growth-suppressing effect, added together with 2 nM talazoparib, FaDu, 6 days.

In the case of `NC(=O)c1cccc2cn(-c3ccc([C@@H]4CCCNC4)cc3)nc12` [niraparib], the “findings such as weight loss” value in series [1] (Day 21, OV-90 model) was “no particularly significant finding such as weight loss”. The “tumor growth inhibition (TGI)” value in series [1] (niraparib 75 mg/kg oral for 5 days from Day 0, Day 21, OV-90) is 1%.
For `COc1ccc(C2=CN3C(=O)c4cc(OC)c(OCCCOc5cc6c(cc5OC)C(=O)N5CC7(CC7)C[C@H]5C=N6)cc4NC[C@@H]3C2)cc1` [derivative C, (11a′S)-7′-Methoxy-8′-(3-{[(11aS)-7-methoxy-2-(4-methoxyphenyl)-5-oxo-5,10,11,11a-tetrahydro-1H-pyrrolo[2,1-c][1,4]benzodiazepin-8-yl]oxy}propoxy)-1′,11a′-dihydro-5′H-spiro[cyclopropane-1,2′-pyrrolo[2,1-c][1,4]benzodiazepine]-5′-one], the negative logarithm of the IC50 (pIC50) (commonly −log10 of the IC50, conventionally taken in molar units) in series [2] (setting [5]) was 9.95; in series [2] (setting [6]) it was 10.05; in series [3] (setting [7]) it was 10.14; in series [3] (setting [8]) it was 10.35; in series [4] (setting [9]), 10.08; in series [4] (setting [10]), 10.29.
For `COc1cc2c(cc1OCCCCCOc1cc3c(cc1OC)C(=O)N1CC4(CC4)C[C@H]1CN3)N=C[C@@H]1CC3(CC3)CN1C2=O` [derivative B, (11a′S)-7′-Methoxy-8′-[(5-{[(11a′S)-7′-methoxy-5′-oxo-5′,11a′-dihydro-1′H-spiro[cyclopropane-1,2′-pyrrolo[2,1-c][1,4]benzodiazepine]-8′-yl]oxy}pentyl)oxy]-1′,10′,11′,11a′-tetrahydro-5′H-spiro[cyclopropane-1,2′-pyrrolo[2,1-c][1,4]benzodiazepine]-5′-one], the pIC50 was 9.92 in series [2] (setting [5]); 10.10 in series [2] (setting [6]); 9.91 in series [3] (setting [7]); 10.14 in series [3] (setting [8]); 9.92 in series [4] (setting [9]); 10.09 in series [4] (setting [10]).
